Experimental data from patent US7301020B2, “Macrolide analogs and methods for identifying same” (priority 2003, dated 2007).

What was measured:
Prodan-labeled G-actin = biological target: T1, Prodan-labeled G-actin (Oryctolagus cuniculus, UniProt P68135); experiment: Prodan-G-actin titration: binding stoichiometry and dissociation constant; set-up: species or system rabbit
T1 construct: F-actin is purified from rabbit skeletal muscle using a standard protocol; Prodan (Acrylodan) fluorophore, chemical label on the thiol of Cys374; from tissue; host or cells: rabbit skeletal muscle
Description: FIG. 2: (A), Stoichiometric binding of Prodan-labeled G-actin (1 μM) in G-buffer with KabC at final concentrations of in μm, a: 0.0; b: 0.1; c: 0.2; d: 0.3; e: 0.4; f: 0.5; g: 0.6; h: 0.7; i: 0.8; j: 0.9; k: 1.0; l: 1.1; m: 1.2; n: 1.5 (B), Plot of the integrated intensity in (A) against [KabC] yields a binding stoichiometry of 1:1.
Prodan-actin: Actin is labeled with the thiol probe, Acrylodan (Molecular Probes, Eugene, Oreg.) using a standard protocol (Marriott et al, 1988). Rabbit muscle G-actin is labeled with the thiol reactive, environmentally sensitive probe, Acrylodan, according to the inventor's earlier publication (Marriott et al, 1988). […]
Determination of the binding stoichiometry and dissociation constants for G-actin complexes with ABPs and macrolide drugs: The change in the quantum yield and/or emission energy of Prodan-actin is used to quantify the interaction of CapG and macrolides with G-actin. The stoichiometry of the CapG-G-actin and macrolide-G-actin complex is determined by titrating Prodan-G-actin at 1 μM with increasing amounts of CapG or the macrolide from 0.1^−10 μM. […] The equilibrium binding constant is determined by titrating a constant amount of Prodan labeled G-actin at 0.05˜0.1 μM in G- or F-buffer with incrementally increasing amounts of the macrolide or CapG over a range of 10 nM to 10 μM. […]

Prodan-G-actin = Prodan-G-actin (Oryctolagus cuniculus, UniProt P68135); experiment: Competition-binding assay with GS1 and CapG on Prodan-G-actin; set-up: F-actin is purified from rabbit skeletal muscle using a standard protocol; from tissue; host or cells: actin from rabbit skeletal muscle; CapG and GS1 expressed in E. coli M15; species or system rabbit
Description: FIG. 4: (A) CapG: (a), Prodan-G-actin (100 nM), (b), Prodan-G-actin-CapG; (c), same as (b) in the presence of 0.2 μM KabC; (B); GS1: (a), Prodan-G-actin 100 nM; (b), Prodan-G-actin-GS1; (c), same as (b) in the presence of 0.2 μM KabC.
Characterization of actin binding proteins: The actin-binding properties of the ABPs used in this study are evaluated from changes in the fluorescence emission spectrum of Prodan-actin and actin polymerization assays as described by Marriott et al (1988).
Trisoxazolemacrolides specifically compete with GS1 for the (+)-end binding site on actin. Gelsolin, a monomeric 80 kD cytoskeleton protein composed of six domains interacts with actin filaments in a complex, Ca^2+-dependent manner (Janmey et al, 1985; Burtnick et al, 1997). Gelsolin exerts two major effects once bound to an actin filament: first it severs the filament and second it remains tightly bound to the severed (+)-end and serves to block, or cap, further growth. […] Structural analyses of G-actin complexes with GS1 (McLaughlin et al, 1993) and KabC show these unrelated molecules bind to G-actin through common contact sites that include a patch of hydrophobic residues on the surface between sub-domains 1 and 3 and within the cleft that forms between the interface of sub-domains 1 and 3 (McLaughlin et al, 1993;). GS1 binding to Prodan-G-actin shifts the average energy of the fluorescence emission to the red and is accompanied by a decrease in the quantum yield (FIG. 4A) but not to the extent seen in the KabC-G-actin complex (FIG. 2).
Trisoxazolemacrolides specifically compete with CapG for the (+)-end binding site on actin. CapG, a Ca^2+-dependent, (+)-end actin filament capping protein, is found at high levels in macrophage cells where it regulates membrane ruffling and cell protrusions associated with phagocytosis and motility (Botelho et. al., 2000). […] The Ca^2+-dependent binding of CapG to Prodan-G-actin is accompanied by a dramatic blue-shift in the emission spectrum and an increase in quantum yield (FIG. 4B, curve b). The difference in fluorescence emission spectra between free and CapG-bound Prodan-G-actin is used to quantify the parameters for this binding reaction. The G-actin-CapG complex exists as a 1:1 complex and has a dissociation constant of 100 nM (data not shown). […] This conclusion is consistent with a comparison of high-resolution structures of G-actin with GS1 and KabC and a preliminary analysis of a 2.8 Angstrom structure of a CapG mutant (Vorobiev et al, PDB database, 2002). […] However the emission properties of the CapG-Prodan-G-actin complex are unaffected by the binding of LatA, DNAse and thymosin β4 (Tβ4), which is consistent with some structural data showing that these sequestering molecules bind closer to the ATP pocket and DNAse binding loop (Kabsch et al, 1990).

Kabiramide C [KabC]
decrease of quantum yield of Prodan-G-actin on binding (Prodan-labeled G-actin): ~3 fold
displacement of CapG from Prodan-G-actin (Prodan-G-actin): displace CapG from Prodan-G-actin in a Ca^2+-independent manner
stability of final G-actin-KabC complex (Prodan-G-actin; dilution and competition-binding studies): extremely stable and does not dissociate at a concentration below the equilibrium constant
displacement of GS1 from Prodan-G-actin (Prodan-G-actin; presence of EGTA): displaces GS1
